Test results published in patent US11559598B2, “Alcohol free, low viscosity, and high water content air freshener compositions” (Belle-Aire Fragrances, LLC, priority 2020, dated 2023).
Values after ≈ are worked out from the molar mass of the structure shown.

Legend:
[1] = at 25° C.; cited from earlier work
[2] = Appearance of air freshener compositions with 20% BAC1342; assay type: physicochemical; conditions: 20% BAC1342 in distilled water, without any other surfactants
Method: (§1) Two of the compositions used traditional used surfactants (polysorbate 20 and octylphenol oxylate), and the third used a glycol ether (diethylene glycol mono butyl ether). The appearances of the compositions were recorded and their viscosities were measured using a Brookfield Rotational Viscometer with Spindle #1 and Rotational Speed at 12 RPM:
Both of the prior art surfactants fail to form transparent microemulsion with 20% BAC1342 in distilled water.

[3] = Viscosity by Brookfield Rotational Viscometer; assay type: physicochemical; conditions: 20% BAC1342 in distilled water
Method: as §1, with “RPM: […]” for “RPM:”

Row | formation of transparent microemulsion [2] | Structure (SMILES) | water solubility [1] [µg/mL] | viscosity (in words) [3]
1 |  | CC(CC=O)c1ccc(C(C)(C)C)cc1 (stereo not shown) [3-(4-tert-butylphenyl)butanal] | 38 (≈ 186 µM) | 
2 | forms clear microemulsion | CCCCOCCOCCO [diethylene glycol n-butyl ether] |  | low enough to be applied in various formats such as room sprays and plug-ins
3 |  | C=C1CC/C=C(\C)CC[C@@H]2[C@@H]1CC2(C)C [Beta-caryophyllene] | 0.05 (≈ 0.245 µM) | 
